Results reported in ChEMBL document CHEMBL4613255, “Tridiscorhabdin and Didiscorhabdin, the First Discorhabdin Oligomers Linked with a Direct C-N Bridge from the Sponge Latrunculia biformis Collected from the Deep Sea in Antarctica” (J Nat Prod, 2020).

Legend:
HCT-116 = test: Cytotoxicity against human HCT116 cells assessed as reduction in cell viability after 24 hrs by fluorescence based assay; type: functional; details: HCT-116, 24 h
HaCaT = test: Cytotoxicity against human HaCaT cells assessed as reduction in cell viability after 24 hrs by fluorescence based assay

| Structure (SMILES) | IC50 (HCT-116) | IC50 (HaCaT) |
| --- | --- | --- |
| O=C1C2=C3C4=[N+](CCc5c[nH]c1c54)[C@@H]1C(=O)C=C4S[C@H](C[C@]43[C@H]1O)N2 | 940 nM |  |
| O=C1C=C(S[C@@H]2[C@H]3C(=O)C=C4S[C@H]5C[C@@]42C2=C(N5)C(=O)c4[nH]cc5c4C2=[N+]3CC5)[C@@]2(C=CNC3=C2c2nccc4cn([C@H]5[C@H]6C(=O)C=C7S[C@H]8C[C@]75C5=C(N8)C(=O)c7[nH]cc8c7C5=[N+]6CC8)c(c24)C3=O)C=C1Br | 310 nM | 920 nM |
